In brackets after ≈: the same amount, converted by molar mass. Several values for one entry are separate records, joined by “and”; a condition that tells them apart may be missing. Equal entries are not always repeated.
Assays:
Format in all cases: cell-based, Escherichia coli
[1] = system: EKO-35-Pore strains with integrated AcrB, AcrEF, AcrD, MdtEF with pGDP2:emrE or empty pGDP-2; experiment: Efflux pump interplay MIC profiling (pGDP2:emrE), porinated; conditions: for Interplay effect / MIC / Fold Change from EKO-35: Pore +
Excerpt: This plasmid enables single-copy genomic integration of a selected gene through integration into the nonessential araC gene within the arabinose operon (Cox, G. et al., 2022). All E. coli genes were amplified from E. coli BW25113 genomic DNA, and mexCD was amplified from P. aeruginosa PAO1, using a high-fidelity polymerase, followed by ligation into pINT2. Successful clones were verified using PCR (Primers: pLac-Fwd/pINT-Rev, Table 4) and confirmed via Sanger sequencing at The Centre for Applied Genomics (TCAG) (The Hospital for Sick Children) and the AAC (University of Guelph). For the interplay studies, this process was repeated using the pGDP2 plasmid (Cox, G. et al., 2022).
To enable comparison between efflux production in different genetic backgrounds, each efflux pump-encoding gene was also integrated into the genome of the wild-type BW25113 strain, the single gene deletion mutant from the Keio Collection, and EKO-35. Strains of interest were propagated on LB agar at 37° C. Cell inoculum was prepared using the colony resuspension method and applied to a 96-well well plate (VWR) in technical duplicate, and the minimum inhibitory concentrations were determined according to Clinical & Laboratory Standards Institute (CLSI) protocols in MHB II (Patel J. B. et al, 2015). The plates were incubated for 18 h (Multitron Shaker, Infors HT) at 37° C. with aeration at 900 rpm. The plates were equilibrated to room temperature before the OD600 nm was measured using a BioTek Synergy H1 microplate reader. For interplay profiling, blank subtracted OD600 nm values >0.1 were considered to represent growth.
To investigate, the EKO-35-Pore strains were profiled using the same approach.

[2] = system: EKO-35 strains with integrated RND tripartite efflux pumps (AcrB, AcrEF, AcrD, and MdtEF) with pGDP2:emrE or empty pGDP-2; experiment: Efflux pump interplay MIC profiling (pGDP2:emrE); conditions: for Interplay effect / MIC / Fold Change from EKO-35: Pore −
[3] = system: EKO-35-Pore expressing the P. aeruginosa pump mexCD; experiment: Checkerboard synergy (FICI), porinated strain
Outline: (§1)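 Inocula prepared from resuspended colonies were exposed to PAβN or NMP combined with antibiotics in MHB II checkerboards. Growth was scored by OD600 to define MICs. FICI then classified the interaction, with values under 0.5 counted as synergistic.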

[4] = system: EKO-35 porinated strain expressing acrD; experiment: Checkerboard synergy (FICI), porinated strain; conditions: for interaction of PAβN in combination with the labelled antibiotic (FICI): acrD expressed in the porinated strain
Outline: as §1

[5] = EKO-35 mexCD Pore, NMP + antibiotic
[6] = EKO-35 mexCD Pore, PAβN + antibiotic
[7] = strain EKO-35 mexCD Pore, NMP + antibiotic
[8] = EKO-35 acrD Pore, NMP + antibiotic
[9] = EKO-35 acrD Pore, PAβN + antibiotic
[10] = EKO-35 acrD Pore, antibiotic alone (PAβN checkerboard)
[11] = EKO-35 acrD Pore, antibiotic in combination with PAβN
[12] = strain EKO-35 acrD Pore, NMP + antibiotic
[13] = strain EKO-35 acrD Pore, antibiotic alone
[14] = strain EKO-35 acrD Pore, antibiotic in combination with NMP

## C[n+]1c2cc(N)ccc2cc2ccc(N)cc21.[Cl-] [acriflavine]
[1]; EKO-35-Pore
  resistance conferred by AcrD alone or in combination with EmrE: did not increase resistance
[1]; EKO-35-Pore, AcrB, AcrEF, AcrD, MdtEF combined with pEmrE
  interplay of EmrE with tripartite efflux pumps on resistance: Interplay was maintained
[1]; EKO-35-Pore, AcrD with EmrE
  interplay of EmrE with AcrD on resistance: multiplicative effect was lost
[1]; acrB with pEmrE
  Interplay effect: Multiplicative
[1]; acrEF with pEmrE
  Interplay effect: Multiplicative
[1]; mdtEF with pEmrE
  Interplay effect: Multiplicative
[1]; strain EKO-35
  MIC: 0.049 µg/mL
[1]; strain EKO-35 pEmrE
  Fold Change from EKO-35: 16
  MIC: 0.781 µg/mL
[1]; strain acrB pEmrE
  Fold Change from EKO-35: 256
  MIC: 12.5 µg/mL
[1]; strain acrB
  Fold Change from EKO-35: 16
  MIC: 0.781 µg/mL
[1]; strain acrD pEmrE
  Fold Change from EKO-35: 16
  MIC: 0.781 µg/mL
[1]; strain acrD
  Fold Change from EKO-35: 2
  MIC: 0.098 µg/mL
[1]; strain acrEF pEmrE
  Fold Change from EKO-35: 128
  MIC: 6.25 µg/mL
[1]; strain acrEF
  Fold Change from EKO-35: 16
  MIC: 0.781 µg/mL
[1]; strain mdtEF pEmrE
  Fold Change from EKO-35: 32
  MIC: 1.56 µg/mL
[1]; strain mdtEF
  Fold Change from EKO-35: 4
  MIC: 0.195 µg/mL
[2]; EKO-35, AcrB, AcrEF, AcrD, MdtEF combined with pEmrE
  interplay of EmrE with tripartite efflux pumps on resistance: multiplicative effects
[2]; acrB with pEmrE
  Interplay effect: Multiplicative
[2]; acrD with pEmrE
  Interplay effect: Multiplicative
[2]; acrEF with pEmrE
  Interplay effect: Multiplicative
[2]; mdtEF with pEmrE
  Interplay effect: Multiplicative
[2]; strain EKO-35
  MIC: 0.098 µg/mL
[2]; strain EKO-35 pEmrE
  Fold Change from EKO-35: 8
  MIC: 0.781 µg/mL
[2]; strain acrB pEmrE
  Fold Change from EKO-35: 256
  MIC: 25 µg/mL
[2]; strain acrB
  Fold Change from EKO-35: 16
  MIC: 1.56 µg/mL
[2]; strain acrD pEmrE
  Fold Change from EKO-35: 16
  MIC: 1.56 µg/mL
[2]; strain acrD
  Fold Change from EKO-35: 1
  MIC: 0.098 µg/mL
[2]; strain acrEF pEmrE
  Fold Change from EKO-35: 128
  MIC: 12.5 µg/mL
[2]; strain acrEF
  Fold Change from EKO-35: 8
  MIC: 0.781 µg/mL
[2]; strain mdtEF pEmrE
  Fold Change from EKO-35: 16
  MIC: 1.56 µg/mL
[2]; strain mdtEF
  Fold Change from EKO-35: 1
  MIC: 0.098 µg/mL

## CC[C@H]1OC(=O)[C@H](C)[C@@H](O[C@H]2C[C@@](C)(OC)[C@@H](O)[C@H](C)O2)[C@H](C)[C@@H](O[C@@H]2O[C@H](C)C[C@H](N(C)C)[C@H]2O)[C@](C)(O)C[C@@H](C)C(=O)[C@H](C)[C@@H](O)[C@]1(C)O [erythromycin]
[3]; [5]
  Effect: Additive
  FICI: 0.565
[3]; [6]
  Effect: Synergistic
  FICI: 0.385
[3]; EKO-35 mexCD Pore, antibiotic alone (PAβN checkerboard)
  MICb Alone: 0.5 µg/mL
[3]; EKO-35 mexCD Pore, antibiotic in combination with PAβN
  MICb Combined: 0.13 µg/mL
[3]; [7]
  Effect: Additive (additive (FICI >0.5-1.0))
  FICI: 0.565
[3]; strain EKO-35 mexCD Pore, antibiotic alone
  MICb Alone: 2 µg/mL
[3]; strain EKO-35 mexCD Pore, antibiotic in combination with NMP
  MICb Combined: 0.13 µg/mL
[4]
  interaction of PAβN in combination with the labelled antibiotic (FICI): still observed

## CC[n+]1c(-c2ccccc2)c2cc(N)ccc2c2ccc(N)cc21 [ethidium bromide]
[1]; strain EKO-35
  MIC: 0.061 µg/mL
[1]; strain EKO-35 pEmrE
  Fold Change from EKO-35: 4
[1]; strain acrB pEmrE
  Fold Change from EKO-35: 256
  MIC: 15.6 µg/mL
[1]; strain acrB
  Fold Change from EKO-35: 64
  MIC: 3.91 µg/mL
[1]; strain acrD pEmrE
  Fold Change from EKO-35: 8
[1]; strain acrD
  Fold Change from EKO-35: 1
  MIC: 0.061 µg/mL
[1]; strain acrEF pEmrE
  Fold Change from EKO-35: 64
  MIC: 3.91 µg/mL
[1]; strain acrEF
  Fold Change from EKO-35: 16
[1]; strain mdtEF pEmrE
  Fold Change from EKO-35: 32
  MIC: 1.95 µg/mL
[1]; strain mdtEF
  Fold Change from EKO-35: 8
[2]; strain EKO-35
  MIC: 0.122 µg/mL
[2]; strain EKO-35 pEmrE
  Fold Change from EKO-35: 4
  MIC: 0.488 µg/mL
[2]; strain acrB pEmrE
  Fold Change from EKO-35: 256
  MIC: 31.2 µg/mL
[2]; strain acrB
  Fold Change from EKO-35: 64
  MIC: 7.81 µg/mL
[2]; strain acrD pEmrE
  Fold Change from EKO-35: 16
  MIC: 1.95 µg/mL
[2]; strain acrD
  Fold Change from EKO-35: 2
  MIC: 0.244 µg/mL
[2]; strain acrEF pEmrE
  Fold Change from EKO-35: 64
  MIC: 7.81 µg/mL
[2]; strain acrEF
  Fold Change from EKO-35: 16
  MIC: 1.95 µg/mL
[2]; strain mdtEF pEmrE
  Fold Change from EKO-35: 32
  MIC: 3.91 µg/mL
[2]; strain mdtEF
  Fold Change from EKO-35: 8
  MIC: 0.977 µg/mL

## CC(=O)O[C@H]1C[C@@]2(C)[C@@H](C[C@@H](O)[C@H]3[C@@]4(C)CC[C@@H](O)[C@@H](C)[C@@H]4CC[C@@]32C)/C1=C(\CCC=C(C)C)C(=O)O [fusidic acid]
[4]; [8]
  FICI: 1.000
[4]; [9]
  Effect: Synergistic
  FICI: 0.250
[4]; [10]
  MICb Alone: 64 µg/mL
[4]; [11]
  MICb Combined: 8 µg/mL
[4]; [12]
  Effect: — (indifferent (FICI >1.0))
  FICI: 1.000
[4]; [13]
  MICb Alone: 64 µg/mL
[4]; [14]
  MICb Combined: 32 µg/mL

## CN(C)c1ccc(O)c2c1C[C@H]1C[C@H]3[C@H](N(C)C)C(O)=C(C(N)=O)C(=O)[C@@]3(O)C(O)=C1C2=O [minocycline]
[1]; strain EKO-35
  MIC: 0.63 µg/mL
[1]; strain EKO-35 pEmrE
  Fold Change from EKO-35: 1
  MIC: 0.63 µg/mL
[1]; strain acrB pEmrE
  Fold Change from EKO-35: 4
  MIC: 2.5 µg/mL
[1]; strain acrB
  Fold Change from EKO-35: 4
  MIC: 2.5 µg/mL
[1]; strain acrD pEmrE
  Fold Change from EKO-35: 2
[1]; strain acrD
  Fold Change from EKO-35: 2
[1]; strain acrEF pEmrE
  Fold Change from EKO-35: 2
[1]; strain acrEF
  Fold Change from EKO-35: 2
[1]; strain mdtEF pEmrE
  Fold Change from EKO-35: 2
[1]; strain mdtEF
  Fold Change from EKO-35: 2
[2]; strain EKO-35
  MIC: 1.25 µg/mL (≈ 2.73 µM)
[2]; strain EKO-35 pEmrE
  Fold Change from EKO-35: 1
  MIC: 1.25 µg/mL (≈ 2.73 µM)
[2]; strain acrB pEmrE
  Fold Change from EKO-35: 4
  MIC: 5 µg/mL (≈ 10.9 µM)
[2]; strain acrB
  Fold Change from EKO-35: 4
  MIC: 5 µg/mL (≈ 10.9 µM)
[2]; strain acrD pEmrE
  Fold Change from EKO-35: 2
  MIC: 2.5 µg/mL (≈ 5.46 µM)
[2]; strain acrD
  Fold Change from EKO-35: 2
  MIC: 2.5 µg/mL (≈ 5.46 µM)
[2]; strain acrEF pEmrE
  Fold Change from EKO-35: 4
  MIC: 5 µg/mL (≈ 10.9 µM)
[2]; strain acrEF
  Fold Change from EKO-35: 2
  MIC: 2.5 µg/mL (≈ 5.46 µM)
[2]; strain mdtEF pEmrE
  Fold Change from EKO-35: 2
  MIC: 2.5 µg/mL (≈ 5.46 µM)
[2]; strain mdtEF
  Fold Change from EKO-35: 2
  MIC: 2.5 µg/mL (≈ 5.46 µM)

## Cc1onc(-c2ccccc2)c1C(=O)N[C@@H]1C(=O)N2[C@@H]1SC(C)(C)[C@@H]2C(=O)O [oxacillin]
[4]; [8]
  Effect: Additive
  FICI: 0.750
[4]; [9]
  Effect: Synergistic
  FICI: 0.500
[4]; [10]
  MICb Alone: 4 µg/mL
[4]; [11]
  MICb Combined: 1 µg/mL
[4]
  interaction of PAβN in combination with the labelled antibiotic (FICI): still observed
[4]; [12]
  Effect: Additive (additive (FICI >0.5-1.0))
  FICI: 0.750
[4]; [13]
  MICb Alone: 2 µg/mL
[4]; [14]
  MICb Combined: 0.5 µg/mL

## phenylalanine-arginine-β-naphthylamide [PAβN]
[3]; EKO-35 mexCD Pore, PAβN alone, one value per checkerboard
  PABN MICa Alone: 64 µg/mL
[3]; EKO-35 mexCD Pore, with Ciprofloxacin
  PABN MICa Combined: 16 µg/mL
[3]; EKO-35 mexCD Pore, with Erythromycin
  PABN MICa Combined: 8 µg/mL
[4]; EKO-35 acrD Pore, PAβN alone, one value per checkerboard, listed as PABN
  PABN MICa Alone: 32 µg/mL and 64 µg/mL
[4]; EKO-35 acrD Pore, with Fusidic Acid
  PABN MICa Combined: 8 µg/mL
[4]; EKO-35 acrD Pore, with Novobiocin
  PABN MICa Combined: 16 µg/mL
[4]; EKO-35 acrD Pore, with Oxacillin
  PABN MICa Combined: 16 µg/mL

Source: patent US20230407243A1, “GENETIC PLATFORM TO INVESTIGATE THE FUNCTIONS OF BACTERIAL DRUG EFFLUX PUMPS” (priority 2022, published 2023)
